Ends that are not written are not given here.

Data on 2 sequences can be found in PMC10708539, “Two Antimicrobial Peptides Derived from Bacillus and Their Properties” (Molecules, 2023).

The subject of data set [1] is B. cereus ACCC 04315. It is filed as cell-based, Bacillus cereus. The procedure: (§1) The minimum inhibitory concentrations (MICs) of purified antimicrobial peptides against St. aureus ACCC 10499, B. cereus ACCC 04315, and Sa. enterica ACCC 01996 were determined by the double dilution method. The indicator bacteria cultures were diluted to an OD600 of 0.5 respectively, of which 50 μL of them were added into the sterile 96-well plate, and then 50 μL antimicrobial peptide samples with different concentrations were mixed with each indicator bacterium at a 1:1 ratio. The experiment was performed in three parallel sets. After incubation at 37 °C for 12–18 h, the OD600 value was determined by an Automatic growth curve analyzer (Bioscreen C, Turku, Finland), and the minimum concentration of 100% inhibition of indicator bacteria growth was used as the minimum inhibitory concentration.

In data set [2] the test system is St. aureus ACCC 10499. In kind it is cell-based, Staphylococcus aureus. How it is done: as §1
The test system of data set [3] is trypsin. The data set is described as follows: Protease stability of antimicrobial peptides. The note with it: mixed 1:1 with 1 mg/mL trypsin, water bath 37 °C 1 h, then boiling water bath 5 min; control without protease; read-out inhibition circles against St. aureus ACCC 10499. It is filed as in vitro ADME. How it is done: (§2) Appropriate amounts of purified antimicrobial peptide samples were placed in a water bath at 40 °C, 60 °C, 80 °C, 90 °C, and 100 °C for 30 min and high-temperature autoclave sterilization at 121 °C for 15 min respectively, to carry out temperature sensitivity tests. St. aureus ACCC 10499 was used as an indicator bacterium, and untreated samples were used as controls, with three parallel groups for each sample to observe the change in antibacterial activity. Similarly, the pH of the same amount for the antimicrobial peptide samples was adjusted to 2~10 in intervals of 1, and the neutral pH was 7.0 as the control. The samples with a different pH were kept in a water bath at 37 °C for 30 min. St. aureus ACCC 10499 was used as an indicator bacterium to detect the resistance of the antimicrobial peptide to an acid and base. In addition, appropriate antimicrobial peptide samples were mixed with 1 mg/mL solution of protease K, trypsin, and pepsin at 1:1, and were kept in a water bath at 37 °C for 1 h, followed by a boiling water bath for 5 min to inactivate the enzymes. The samples without protease treatment were used as controls and the changes in antibacterial activity were observed.

Data set [4] concerns the target protease K (Parengyodontium album, UniProt P06873). The data set is described as follows: Protease stability of antimicrobial peptides. It is filed as in vitro ADME. The note with it: mixed 1:1 with 1 mg/mL protease K, water bath 37 °C 1 h, then boiling water bath 5 min; control without protease; read-out inhibition circles against St. aureus ACCC 10499. How it is done: as §2

Data set [5] deals with pepsin. Nature of the data set: Protease stability of antimicrobial peptides. In kind it is in vitro ADME. Conditions: mixed 1:1 with 1 mg/mL pepsin, water bath 37 °C 1 h, then boiling water bath 5 min; control without protease; read-out inhibition circles against St. aureus ACCC 10499. How it is done:
as §2

In data set [6] the test system is Sa. enterica ACCC 01996. Nature of the data set: MIC by double dilution method. In kind it is cell-based, Salmonella enterica. Conditions: 96-well plate, culture OD600 0.5 mixed 1:1 with peptide, 37 °C 12–18 h, OD600 read-out, minimum concentration of 100% growth inhibition, three parallel sets. The procedure:
as §1

protease K, sequence (P06873 106-384): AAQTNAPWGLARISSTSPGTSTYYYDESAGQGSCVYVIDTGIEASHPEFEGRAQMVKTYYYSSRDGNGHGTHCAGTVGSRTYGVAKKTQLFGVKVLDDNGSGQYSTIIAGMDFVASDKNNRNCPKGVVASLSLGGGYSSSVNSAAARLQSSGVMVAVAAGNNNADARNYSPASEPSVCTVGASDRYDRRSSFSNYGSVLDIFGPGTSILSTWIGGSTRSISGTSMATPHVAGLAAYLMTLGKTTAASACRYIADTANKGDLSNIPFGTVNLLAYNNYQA

As for VFLENVLR [Peptide-I], the MIC – broadly, the least concentration at which growth counts as inhibited – was found to be 32 µg/mL in data set [1], 64 µg/mL in data set [2] and 8 µg/mL in data set [6]. Besides, the “Antibacterial activity after treatment with trypsin” value in data set [3] is “insensitive”. Further, in data set [4], the “Antibacterial activity after treatment with protease K” value is “insensitive”. For the same sequence, in data set [5], the “Antibacterial activity after treatment with pepsin” value is “insensitive”.

On to FSGSGSGTAFTLR [Peptide-II], for which the MIC in data set [1] was determined as 64 µg/mL; in data set [2], 16 µg/mL; in data set [6], 16 µg/mL; in data set [6] (listed as peptide-II), 8 µg/mL. In addition, in data set [3], the “Antibacterial activity after treatment with trypsin” value is given as “no significant effect”. For the same sequence, in data set [4], the “Antibacterial activity after treatment with protease K” value is listed as “significantly reduced”. Further, in data set [5], the “Antibacterial activity after treatment with pepsin” value is “no significant effect”.
